Reference: patent EP0381656A1, “Alcohol-soluble/water-insoluble oil-containing antifreeze” (FIRST BRANDS CORPORATION, priority 1989, dated 1990)
Like-named read-outs stand apart in the source and are kept apart here.

Legend:
[1] = Contact angle of polypropylene glycol oil drop on surface-modified metal (Goniometer); assay type: physicochemical
[2] = assay type: physicochemical
Experimental: The "alcohol-soluble/water-insoluble oil" (component (b)) is preferably characterized as having a minimum solubility in the selected alcohol of at least about 0.4 wt. % at 25°C at 1 atm pressure, preferably greater than 1.0 wt, % at 25°C at 1 atm pressure. The "alcohol-soluble/-water-insoluble oil" component is further characterized as being practically insoluble in a 50/50 (weight basis) mixture of the alcohol and water such that the alcohol-soluble/water-insoluble oil has a solubility in the alcohol/water mixture of less than about 0.25 wt. % at 25°C and a pressure of 1 atm, preferably less than about 0.05 at 25°C and a pressure of 1 atm. The solubility of the alcohol-soluble/water-insoluble oil in the alcohol or alcohol/water may be determined by equilibrating a concentration sequence of the oil in the alcohol under stirred conditions. After saturation for 2 hours at the specified temperature, any excess over saturation is estimated from the appearance of the solution. Insolubility is easily detected by visual observation. Formation of two distinctive phases or a turbid suspension indicates substantial insolubility. Turbidity and transmittance can be used to objectively determine if any insoluble material is present as a suspension. For example, when ethylene glycol (EG) or 1/1 mixture of EG/water are used for calibration, they both have a turbidity of 0.7 NTU (Nephelometric Turbidity Unit as measured with the HACH model 2100A turbidimeter) and 100% transmittance (or absorbance=0) measured with filtered light with 470nm wavelength using a Brinkmann PC/600 spectrophotometer. […] When 0.6% hexanol was added to the 1/1 EG/water solution, the turbidity […] to 1.9 NTU and the transmittance decreased to 98% (absorbance of 0.01). When 1% hexanol was added to 1/1 EG/water, the turbidity increased to 3 NTU and the transmittance decreased to 93% (absorbance of 0.03). […]

[3] = Contact angle of polypropylene glycol oil drop on surface-modified metal (Goniometer); assay type: physicochemical; details: 0.1 wt. percent surface modifier
Text: The effectiveness of a surface modifier compound in modifying the metal surface to be treated with a alcohol-soluble/water-insoluble oil may be evaluated by first treating a metal surface with a selected surface modifier compound. A selected oil droplet is then placed on the modified metal surface and the contact angle measured using a Goniometer.
A series of contact angle measurements were made using for convenience, a polypropylene glycol having a molecular weight of about 1000 as the oil. The contact angle measurement is made by placing the drop of polypropylene glycol on an aluminum surface submerged in a solution having 0.1 wt. percent of a selected surface modifier compound in an aqueous working antifreeze solution having 67% weight percent water, a reserve alkalinity of 50, in borate buffered glycol and having a selected pH of approximately 8. The measured contact angles were as follows:
Several additional surface modifiers were evaluated according to the above procedure to determine their use in wetting the surface of one or more metals commonly employed in automotive cooling systems. The contact angles for aluminum (Al) cast iron (Fe), steel, brass, ASTM solder (ASTM), copper (Cu) and Modine solder (Modine) were measured according to the procedure of this Example 2 using the following surface modifiers: […]

CONTACT ANGLES (At 5 Minutes) Modine Solder ([1]; 0.05% surface modifier) | CONTACT ANGLES (At 5 Minutes) Modine Solder ([1]; 0.02% surface modifier) | CONTACT ANGLES (At 5 Minutes) Modine Solder ([1]; 0.1% surface modifier) | turbidity ([2]; 0.6% in 1/1 EG/water) | turbidity ([2]; 1% in 1/1 EG/water) | Molecule | turbidity and transmittance ([2]; below the solubility limit (5% in EG and 0.2% in 1/1 EG/water)) | CONTACT ANGLES (At 5 Minutes) ASTM Solder [3] | CONTACT ANGLES (At 5 Minutes) Al [3] | CONTACT ANGLES (At 5 Minutes) Brass [3] | CONTACT ANGLES (At 5 Minutes) Cu [3] | CONTACT ANGLES (At 5 Minutes) Fe [3] | CONTACT ANGLES (At 5 Minutes) Steel [3]
117 ° |  |  |  |  | CCCCCCCCCCCC(=O)O [lauric acid] |  |  |  |  |  |  | 
52 ° | 68 ° | 51 ° |  |  | CCCCCCCC/C=C\CCCCCCCC(=O)O [oleic acid] |  |  |  |  |  |  | 
 |  |  | 1.9 NTU | 3 NTU | CCCCCCO [hexanol] | stayed essentially the same as that of the solvent |  |  |  |  |  | 
 |  | 138 ° |  |  | BUO(PO)₅C₃H₆5 Si (CH₃O)₃ [PO functional silane] |  | 138 ° | 139 ° | 63 ° | 27 ° | 90 ° | 65 °

Molecule | CONTACT ANGLES (At 5 Minutes) Modine Solder ([1]; 0.05% surface modifier) | CONTACT ANGLES (At 5 Minutes) Modine Solder ([1]; 0.02% surface modifier) | CONTACT ANGLES (At 5 Minutes) Modine Solder ([1]; 0.1% surface modifier) | turbidity ([2]; 0.6% in 1/1 EG/water) | turbidity ([2]; 1% in 1/1 EG/water) | turbidity and transmittance ([2]; below the solubility limit (5% in EG and 0.2% in 1/1 EG/water)) | CONTACT ANGLES (At 5 Minutes) ASTM Solder [3] | CONTACT ANGLES (At 5 Minutes) Al [3] | CONTACT ANGLES (At 5 Minutes) Brass [3] | CONTACT ANGLES (At 5 Minutes) Cu [3] | CONTACT ANGLES (At 5 Minutes) Fe [3] | CONTACT ANGLES (At 5 Minutes) Steel [3]
C₁₅hydroxyalkanesulfonate |  |  | 120 ° |  |  |  | 150 ° | 145 ° | 57 ° | 58 ° | 108 ° | 160 °
